Assay results: patent US6599885B2, “Derivatives of erythromycin, clarithromycin, roxithromycin or azithromycin with antibiotic and mucolytic activity” (Russinsky Limited, priority 1998, dated 2003)
≈ marks a conversion by molar mass, not a printed value.

The compounds below were run on Micrococcus luteus (assay: MIC liquid tube assay (antibiotic activity)). Details: Micrococcus luteus; liquid tube assay in nutrient broth, 37° C., growth observed after 24 and 48 hours; MIC = last concentration where growth inhibited; read-out: MIC.
Type: cell-based
Description: Micrococcus luteus from stock was streaked on a nutrient agar plate to confirm colony morpbiology, colour and purity. After 24 hours incubation at 37° C. an isolated colony is picked and inoculated into 10 ml of nutrient broth. This is incubated overnight at 37° C. and is subsequently used as the inoculum. 10 mg of each of the test compounds is weighed and dissolved in 10 ml of […] methanol in sterile 20 ml universal containers. This is then diluted with ringers buffer solution to give a concentration of 1 mg/ml. Quantitation of activity is determined using an MIC ([…]) liquid tube assay. For each test substance the following concentrations are set up: 10 μg/ml, 5 μg/ml, 1 μg/ml, 0.5 μg/ml, 0.1 μg/ml, 0.05 μg/ml and 0.01 μg/ml. Each contained nutrient broth and 0.1 ml of overnight culture of Micrococcus luteus. The tubes were incubated at 37° C. and observed for growth after 24 hours and 48 hours. Growth is assessed by dense turbidity, optical density at 660 nm using a spectrophotometer or clarity. The MIC is the last concentration where growth inhibited.

Row | Compound | MIC [µg/mL]
1 | CC[C@H]1OC(=O)[C@H](C)[C@@H](O[C@H]2C[C@@](C)(OC)[C@@H](O)[C@H](C)O2)[C@H](C)[C@@H](O[C@@H]2O[C@H](C)C[C@H](N(C)C)[C@H]2O)[C@](C)(OC)C[C@@H](C)C(=O)[C@H](C)[C@@H](O)[C@]1(C)O [Clarithromycin] | ≤ 0.01
2 | CCC(=O)O[C@H]1[C@H](O[C@@H]2[C@@H](C)[C@H](O[C@H]3C[C@@](C)(OC)[C@@H](O)[C@H](C)O3)[C@@H](C)C(=O)O[C@H](CC)[C@@](C)(O)[C@H](O)[C@@H](C)C(=O)[C@H](C)C[C@@]2(C)O)O[C@H](C)C[C@@H]1N(C)C [Erythromycin-propionate, Erythromycin Propionate, reference compound] | 0.01 to 0.05 (≈ 0.0127 to 0.0633 µM)

Same assay, conditions: liquid tube assay in nutrient broth, 37° C., growth observed after 24 and 48 hours; MIC = last concentration where growth inhibited

Row | Compound | MIC
3 | CC(=O)N[C@@H](CS)C(=O)O.CC[C@H]1OC(=O)[C@H](C)[C@@H](O[C@H]2C[C@@](C)(OC)[C@@H](O)[C@H](C)O2)[C@H](C)[C@@H](O[C@@H]2O[C@H](C)C[C@H](N(C)C)[C@H]2O)[C@](C)(OC)C[C@@H](C)C(=O)[C@H](C)[C@@H](O)[C@]1(C)O [Clarithromycin-N-acetylcysteinate [1:1], Clarithromycin-N-Acetylcysteinate-[1:1]-Salt] | ≦0.01 μg/ml
4 | Clarithromycin-N-Acetylcysteinate-[1:4]-Salt [Clarithromycin-N-acetylcysteinate [1:4]] | 0.01 to 0.05 µg/mL
5 | Erythromycin Propionate-N-Acetylcysteine [1:1.8]-Adduct [Erythromycin-N-acetylcysteinate [1:1.8]] | ≦0.01 μg/ml
6 | Erythromycin Propionate-N-Acetylcysteine [1:4]-Adduct [Erythromycin-N-acetylcysteinate [1:4]] | 0.05 to 0.1 µg/mL
7 | Erythromycin Propionate-N-Acetylcysteine-[1:1]-Salt [Erythromycin-N-acetylcysteinate [1:1]] | 0.01 to 0.05 µg/mL
